# In US20040018983A1, “Antifungal compositions” (Achillion Pharmaceuticals, Inc., priority 2001, published 2004):
# Like-named read-outs stand apart in the source and are kept apart here.
# System: C. albicans
# Assay: Fungal susceptibility to zinc finger selective antifungals: broth microdilution growth inhibition (OD 405 nm), with and without a zinc finger blocking compound
# Type: cell-based, Candida albicans
# Details: for MIC: Candida albicans, 48 h, read-out: C. albicans MIC; for Fold Increase: increase of MIC with blocking compound (cysteine or glutathione) over MIC alone; for C. albicans MIC + 200 μg/ml cysteine: with 200 μg/ml cysteine as zinc finger blocking compound; for C. albicans MIC + 200 μg/ml glutathione: with 200 μg/ml glutathione as zinc finger blocking compound; for blocking of antifungal action by glutathione and cysteine (zinc finger mechanism): discussion of Table 2
# Protocol: A panel of Candida clinical isolates (including azole-resistant species) plus single isolates of Aspergillus fumigates, were used to evaluate the activity of the test compounds in vitro. Inocula were prepared as broth cultures (yeasts) or as suspensions of fungal material made from agar slope cultures (molds). The test compounds were pipetted from DMSO stock solution into water to provide a series of […] dilutions. […] (other fungi). Growth in the microcultures was measured by its optical density (OD) measured at a wavelength of 405 nm. The OD for cultures with test compounds was calculated as a percentage of the control, drug-free OD. Inhibition of growth to 35% of control or less was recorded as significant inhibition (Table 2).
# [1] = no blocking compound, CYG medium, 2 days at 37° C., inhibition of growth to 35% of control or less
Compound,MIC [1] [µg/mL],Fold Increase [Fold],C. albicans MIC + 200 μg/ml cysteine [µg/mL],C. albicans MIC + 200 μg/ml glutathione [µg/mL],blocking of antifungal action by glutathione and cysteine (zinc finger mechanism),MIC [µg/mL]
"O=Nc1ccc2oc(=O)ccc2c1 [Compound 2, 6-nitroso-1,3-benzopyrene]",4,4,16,16,–,–
"Cc1ccccc1N=O [Compound 4, 2-nitrosotoluene]",16,0,16,16,not blocked by either glutathione or cysteine,–
"c1csc(SSc2cccs2)c1 [Compound 6, di(2-thienyl)disulphide]",8,2,16,16,–,–
"CN(C)c1ccc(N=O)cc1 [Compound 9, 4-nitroso-N,N-dimethylaniline]",–,–,–,–,"blocked to a somewhat different extent by the two different blocking compounds, but in both cases the effect is significant",–
"O=Nc1ccc(Nc2ccccc2)cc1 [Compound 12, 4-nitrosodiohenylamine]",–,8,16,16,–,2
